The test system of test [1] is 3T3-L1. Kind of test: Inhibition of adipogenesis in mouse 3T3L1 cells assessed as fat accumulation at 300 uM after 2 to 8 days by oil red O-staining based by ELISA plate reader. It counts as functional, cell-based.
The subject of test [2] is 3T3-L1. Kind of test: Inhibition of adipogenesis in mouse 3T3L1 cells assessed as fat accumulation at 300 uM after 4 to 8 days by oil red O-staining based by ELISA plate reader. It counts as functional, cell-based.
In test [3] the test system is 3T3-L1. Kind of test: Inhibition of adipogenesis in mouse 3T3L1 cells assessed as fat accumulation at 300 uM after 8 days by oil red O-staining based by ELISA plate reader. It counts as functional. The settings on record: 3T3-L1, 192 h.
Test [4] relates to 3T3-L1. Kind of test: Inhibition of adipogenesis in mouse 3T3L1 cells assessed as fat accumulation at 300 uM up to 2 days by oil red O-staining based by ELISA plate reader. It is filed as functional, cell-based.
In test [5] the test system is 3T3-L1. Kind of test: Inhibition of adipogenesis in mouse 3T3L1 cells assessed as fat accumulation at 300 uM up to 4 days by oil red O-staining based by ELISA plate reader. It counts as functional, cell-based.
Test [6] relates to 3T3-L1. In words: Inhibition of adipogenesis in mouse 3T3L1 cells assessed as fat accumulation at 300 uM after 2 to 4 days by oil red O-staining based by ELISA plate reader. It counts as functional, cell-based.
Test [7] has as its system 3T3-L1. Kind of test: Inhibition of adipogenesis in mouse 3T3L1 cells assessed as fat accumulation at 100 uM after 8 days by oil red O-staining based by ELISA plate reader. To be noted: 3T3-L1, 192 h. It counts as functional.

Molecules are shown by their SMILES. The source made the active and inactive calls. The rule behind the calls is not given here.

A word on the inhibition: it is the percentage by which the read-out fell short of the control. Turning to `COc1cc2oc(C)cc(=O)c2c(O)c1C/C=C(/C)CO[C@@H]1O[C@H](CO)[C@@H](O)[C@H](O)[C@H]1O` [CNIDIMOSIDE B], the inhibition entry with 3T3-L1 [1], with 3T3-L1 [2], with 3T3-L1 [4], in the test on 3T3-L1 [5] and in the test on 3T3-L1 [6] was “Active” in each case. Moreover, the inhibition at 300 µM in the test with 3T3-L1 [3] was 14.7%.
For the molecule `C=C(C)C(Cc1c(O)cc2oc(CO)cc(=O)c2c1O)O[C@@H]1O[C@H](CO)[C@@H](O)[C@H](O)[C@H]1O` (stereo partly drawn) [MONNIERISIDE D], the inhibition at 300 µM in the test on 3T3-L1 [3] came to 85.5%.
Same read-out and setting: in the case of `C=C(C)C(O)Cc1c(O[C@@H]2O[C@H](CO)[C@@H](O)[C@H](O)[C@H]2O)cc2oc(CO)cc(=O)c2c1O` (stereo partly drawn) [MONNIERISIDE E] it was 82.2%.
As to `Oc1ccc(/C=C/c2cc(O)cc(O)c2)cc1` [RESVERATROL], the inhibition at 100 µM in the test on 3T3-L1 [7] came out at 19.4%.
In the case of `Cc1cc(=O)c2c(O)c3c(cc2o1)OC(C(C)(C)O[C@@H]1O[C@H](CO)[C@@H](O)[C@H](O)[C@H]1O)C3` (stereo partly drawn) [MONNIERISIDE G], the inhibition at 300 µM with 3T3-L1 [3] turned out to be 99.7%.
Same read-out and setting: in the case of `C/C(=C/Cc1c(O[C@@H]2O[C@H](CO)[C@@H](O)[C@H](O)[C@H]2O)cc2oc(CO)cc(=O)c2c1O)CO` [MONNIERISIDE B] it was 68.9%.
Still for that read-out and setting: to `C/C(=C/Cc1c(O)cc2oc(C)cc(=O)c2c1O)CO[C@@H]1O[C@H](CO)[C@@H](O)[C@H](O)[C@H]1O` [CNIDIMOSIDE A] belongs 75%; to `C=C(C)C(Cc1c(O)cc2oc(C)cc(=O)c2c1O)O[C@@H]1O[C@H](CO)[C@@H](O)[C@H](O)[C@H]1O` (stereo partly drawn) [MONNIERISIDE C], 79.9%.
On the same count and under the same terms, to `C/C(=C/Cc1c(O[C@@H]2O[C@H](CO)[C@@H](O)[C@H](O)[C@H]2O)cc2oc(C)cc(=O)c2c1O)CO` belongs 87%; to `C=C(C)C1Cc2c(cc3oc(CO)cc(=O)c3c2O)O1` (stereo not drawn) [UMTATIN], 89.4%.
As for `C=C(C)C1Cc2c(cc3oc(CO[C@@H]4O[C@H](CO)[C@@H](O)[C@H](O)[C@H]4O)cc(=O)c3c2O)O1` (stereo partly drawn) [MONNIERISIDE F], in the test on 3T3-L1 [3], the inhibition at 300 µM amounted to 97.1%.
The same measure, in the same setting: to `Cc1cc(=O)c2c(O)cc(O[C@@H]3O[C@H](CO)[C@@H](O)[C@H](O)[C@H]3O)cc2o1` [UNDULATOSIDE A] belongs 88.5%; to `C/C(=C/Cc1c(O)cc2oc(CO)cc(=O)c2c1O)CO[C@@H]1O[C@H](CO)[C@@H](O)[C@H](O)[C@H]1O` [HYDROXYCNIDIMOSIDE A], 73.1%.

The values above are taken from ChEMBL document CHEMBL2086323, “Anti-adipogenic chromone glycosides from Cnidium monnieri fruits in 3T3-L1 cells” (2012).
